Results published in PubChem BioAssay AID179 (DTP/NCI, 2004).
Calls of active or inactive are those of the source.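 Rule for the calls: active = compounds giving half or more protection of infected cells from virus-caused growth loss, again on retest; inactive = the rest.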

System: CEM cells HIV-1 protection, formazan growth assay
Assay: NCI AIDS Antiviral Assay
Details: for IC50: measured here: growth of uninfected CEM cells
How it was run: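 Five concentrations of each compound were applied to infected and uninfected human CEM cells. Protection from HIV-1 was judged from growth measured with a soluble formazan assay.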

| Structure (SMILES) | EC50 [µM] | IC50 [µM] | outcome |
| --- | --- | --- | --- |
| Nc1ccc(-c2ccc(N)c(S(=O)(=O)O)c2)cc1S(=O)(=O)O | > 724 | > 724 | – |
| Nc1ccnc2c1ncn2[C@H]1C[C@H](O)[C@@H](CO)O1 | > 200 | > 200 | – |
| CC(=S)NNC(=O)c1ccncc1 | > 1290 | 135 | – |
| Cc1ccc(N=Nc2c(C)nn(-c3ccccc3)c2C)c(Br)c1 | – | – | inactive |
| Cn1c(=O)c2nc(NCCO)cnc2n(C)c1=O | > 200 | 85.1 | – |
| O=C1C=CC2(CCC23C=CC(=O)O3)O1 (stereo not drawn) | > 135 | 7.94 | – |
| CC(C)(O)C(O)COc1c2c(cc3oc(=O)ccc13)OCO2 (stereo not drawn) | > 813 | 339 | – |
| O=Cc1cn(C(=O)c2ccccc2)c2ccccc12 | – | – | inactive |
| Brc1cccc[n+]1Cc1ccccc1C[n+]1ccccc1Br | > 200 | > 200 | – |
| COC1/C=C/OC2(C)Oc3c(C)c(O)c4c(O)c(c(/C=N/N(C)c5nc6c(N)ncnc6n5C5OC(CO)C(O)C5O)c(O)c4c3C2=O)NC(=O)C(C)=C/C=C/C(C)C(O)C(C)C(O)C(C)C(OC(C)=O)C1C (stereo not drawn) | > 200 | 112 | – |
| O=S(=O)(c1ccccc1)C1(Sc2ccccc2)CC=CC1 | > 81.3 | 51.3 | – |
| O=C1NC(=O)c2ncccc21 | > 200 | > 200 | – |
| Cc1c(Cl)cccc1NC(=O)CN(CC(C)C)CC(C)C | > 200 | 33.1 | – |
| COc1cc(C2C3=C(N=C4SC(C(C)=O)=C(C)N42)c2ccccc2CC3)cc(OC)c1OC (stereo not drawn) | > 200 | 40.7 | – |
| O=P(O)(O)C=C=C1CCCCC1 | > 200 | > 200 | – |
| C=CCCCC1CCCNC1=O (stereo not drawn) | > 1480 | 1150 | – |
| COC(=O)N[C@@H]1C[C@H]2CC[C@]1(O[Si](C(C)C)(C(C)C)C(C)C)C(=O)C2 | > 200 | 16.6 | – |
| c1nc(SSc2ncnc3nc[nH]c23)c2[nH]cnc2n1 | > 20 | 0.457 | – |
| O/N=C1/CCC/C1=C\c1ccccc1 | – | – | inactive |
| c1ccc(-c2sc(-c3cccs3)cc2Cc2cccs2)cc1 | > 200 | 83.2 | – |
| Cc1ccc(S(=O)(=O)CNC(=O)C(O)(O)C(F)(F)F)cc1 | > 200 | > 200 | – |
| O=S(=O)(N=S(c1ccccc1)c1ccccc1)c1ccccc1 | > 145 | > 145 | – |

| Structure (SMILES) | EC50 [µM] | IC50 [µM] | outcome |
| --- | --- | --- | --- |
| COc1cc2c(cc1OC)C(CSC)Cc1cc(OC)c(OC)cc1N(C)CCC2 (stereo not drawn) | > 31.6 | > 31.6 | – |
| CC1CN=C(Nc2ccc(F)cc2F)S1 (stereo not drawn) | > 200 | > 200 | – |
| CCn1c(=O)c2c3ccc(OC)cc3[nH]c2c2ccc(OC)cc21 | > 200 | 56.2 | – |
| CC(=O)O[C@H]1CN(S(=O)(=O)c2ccc(C)cc2)C[C@@H]1C1CCCCC1 | > 200 | 28.8 | – |
| Fc1ccc(C(=NCc2ccccc2)N2CCOCC2)cc1 | > 200 | > 200 | – |
| CC(C)(O)/C=C\P(=O)(O)O | > 200 | > 200 | – |
| OCC1OC(n2cnc3c(Cl)ncnc32)C(O)C1O (stereo not drawn) | – | – | inactive |
| Cn1c(-c2ccc(/C=N/N=C(\N)N/N=C/c3ccc(-c4c[n+]5ccsc5n4C)cc3)cc2)c[n+]2ccsc12 | 6.03 | 120 | – |
| CCc1nn(Cc2ccccc2)c2nc(C)c(CCc3ccccc3)c(Cl)c12 | > 200 | > 200 | – |
| CCC[CH2][Sn]1([CH2]CCC)[O]Cc2nc(C)ccc2[O]1 | > 14.1 | 3.16 | – |
| CC(=O)NC1C(CO)O[C@@H]2OC(C)(C)O[C@H]12 (stereo partly drawn) | > 200 | > 200 | – |
| CC1(C)O[C@@H](CP(c2cccc3ccccc23)c2cccc3ccccc23)[C@H](CP(c2cccc3ccccc23)c2cccc3ccccc23)O1 | > 200 | > 200 | – |
| O=c1[nH][nH]c(=O)c2c1[nH]c(=S)n2Cc1ccccc1 | > 912 | > 912 | – |
| CN1CCOC(C(NC(=O)c2ccccc2)c2ccccc2)C1=O (stereo not drawn) | > 200 | > 200 | – |
| COC(=O)C12C3C4C1C1C2C3C41C(=O)O (stereo not drawn) | > 1200 | > 1200 | – |
| N#Cc1c(N)c(C(=O)Nc2ccccc2)n2c1CCC2 | > 200 | > 200 | – |
| Brc1ccc(C[N+]23CN4CN(CN(C4)C2)C3)cc1 | – | – | inactive |
| CCOC(=O)CSc1c([N+](=O)[O-])ncn1C | > 1020 | 170 | – |
| O=C1/C(=C/c2ccc([N+](=O)[O-])cc2)Oc2cc(O)ccc21 | > 200 | 35.5 | – |
| CCOC(=O)[C@H]1Nc2ccccc2C2c3ccccc3CC21 (stereo partly drawn) | > 64.6 | > 64.6 | – |
| COC(=O)[C@]1(C)CCCC2(C)C1CC[C@H]1C=C(C)[C@H]3CCC12C3 (stereo partly drawn) | > 112 | > 112 | – |
| CC(C)c1cccc2sc(NC(=O)C(=O)C(C#N)c3cccc4ccccc34)nc12 (stereo not drawn) | – | – | inactive |

| Structure (SMILES) | EC50 [µM] | IC50 [µM] | outcome |
| --- | --- | --- | --- |
| C=CCn1c(C23CC4CC(CC(C4)C2)C3)n[nH]c1=S | > 1000 | 30.9 | – |
| Cc1ccc(NC(=O)C(=O)C2C(=O)NC(=O)NC2=O)c(C)c1 | > 832 | > 832 | – |
| COC1CCC2=CCC3C(=O)N(c4ccccc4)C(=O)C3C21 (stereo not drawn) | > 603 | > 603 | – |
| N[C@H]1c2c(Cl)cccc2C(=O)[C@H]1O | > 200 | 11 | – |
| CC1=CSC2=NCCN12 | > 200 | > 200 | – |
| C=C1[C@H]2O[C@H]2[C@@H](OC(C)=O)[C@@]2(C)[C@@H](OC(C)=O)C[C@@H](OC(=O)CCC)[C@@](C)(O)[C@@H]2[C@@H](OC(C)=O)[C@]2(O)[C@@H](C)C(=O)O[C@H]2[C@H]1Cl | > 200 | 174 | – |
| CC(CC[C@@H](C)C1CCC2[C@@H]3CC(O)C4CC(O)[C@@H](O)C[C@]4(C)C3CC[C@@]21C)C(C)(C)C (stereo partly drawn) | – | – | inactive |
| CCCCCC1CC2=C(C(=O)OC2=O)C(O)C(O)(CCCC)CC2=C1C(=O)OC2=O (stereo not drawn) | > 85.1 | > 85.1 | – |
| CC1=C(N2CCOCC2)C(N2CCOCC2)=C(C)C(=O)C1=O | > 200 | 14.5 | – |
| COc1ccccc1NC(=O)C1=C(C)NC(C)=C(C(=O)Nc2ccccc2OC)C1c1ccccc1Cl | – | – | inactive |
| CCN(CC)CCCNc1ccc([N+](=O)[O-])c2nc3ccccc3c(N)c12 | > 200 | 0.214 | – |
| CC/C=C/C(O[Si](C)(C)C(C)(C)C)C1CC2OC(=O)CCCC2O1 (stereo not drawn) | > 708 | > 708 | – |
| N#Cc1c(C#N)c(SSc2c(C#N)c(C#N)c(N)n2-c2ccccc2)n(-c2ccccc2)c1N | > 20 | 1.95 | – |
| O=C1NC(=NC2CCCCC2)C2(CCN(CCCC3(c4ccc(F)cc4)OCCO3)CC2)N1c1ccccc1 | > 200 | 102 | – |
| CC(OC(C)(C)C)C(NC(=O)C(Cc1ccccc1)NC(=O)C(NC(=O)C(CCCCNC(=O)OC(C)(C)C)NC(=O)C(Cc1c[nH]c2ccccc12)C(=O)NC(Cc1ccccc1)NC(=O)C(Cc1ccccc1)NC(=O)C(CC(N)=O)NC(=O)C(N)CCCCNC(=O)OC(C)(C)C)C(C)OC(C)(C)C)C(=O)NC(COC(C)(C)C)C(=O)NC(CSC(C)(C)C)C(=O)OC(C)(C)C (stereo not drawn) | 87.1 | > 200 | – |
| Nc1ncnc2c1ncn2C1CC(OCc2ccccc2[N+](=O)[O-])C(CO)O1 (stereo not drawn) | > 50.1 | 36.3 | – |
| NC(CCC(=O)NC(CS)C(=O)NCC(=O)O)C(=O)O (stereo not drawn) | > 288 | > 288 | – |
| CN(C)c1ccc(/C=C/c2cc[n+](C)c3ccccc23)cc1 | > 200 | 0.501 | – |
| [N-]=[N+]=C1C(=O)NC(=O)N2C3CC(O)C(COC12)O3 (stereo not drawn) | > 200 | > 200 | – |
| CC(=O)/C=C/c1ccc(C2CC(C)=Nc3c(ccc4c3C(=O)c3ccccc3C4=O)N2)cc1 (stereo not drawn) | > 6.31 | > 6.31 | – |
| CC(O)CN1c2ccccc2Sc2ccc(Cl)cc21 (stereo not drawn) | > 200 | 42.7 | – |
| CCOC(=O)C1C(c2ccc3c(c2)OCO3)c2c([nH][nH]c2=O)CC1(O)OCC (stereo not drawn) | > 200 | > 200 | – |

| Structure (SMILES) | EC50 [µM] | IC50 [µM] | outcome |
| --- | --- | --- | --- |
| Cc1ccc(S(=O)(=O)n2cnc(CC(NC(=O)C3CCC(=O)N3C(=O)OCc3ccccc3)C(=O)N3CCCC3C(=O)NN)c2)cc1 (stereo not drawn) | > 200 | > 200 | – |
| CCCC(=O)OCC1=CCC2c3c(c4ccccc4n3C)CC1N2Cc1ccccc1 (stereo not drawn) | > 21.4 | 3.8 | – |
| NC(=O)[N+](=CC(=S)Nc1ccccc1Cl)C(N)=O | > 200 | > 200 | – |
| COc1cccc2c1C(=O)c1c(O)c3c(c(O)c1C2=O)C[C@@](O)(C(C)O)C[C@@H]3OC1CC(N)C(O)C(C)O1 (stereo partly drawn) | – | – | inactive |
| N#CC(C#N)=C1C(C#N)=C(N)NC12OCCO2 | > 200 | > 200 | – |
| COc1ccc(NC(=O)c2oc3cc(O)ccc3c(=O)c2C)c([N+](=O)[O-])c1 | > 676 | 245 | – |
| Cn1c(=S)[nH]c(N)c(Cc2ccccc2)c1=O | > 200 | 64.6 | – |
| O=C(O)c1cc([N+](=O)[O-])cc([N+](=O)[O-])c1/C=C/n1c(=S)[nH]c2ccc([N+](=O)[O-])cc21 | > 100 | 91.2 | – |
| CC(C)CC(NC(=O)C(Cc1ccccc1)NC(=O)[C@H]1CC[C@H](NC(=O)C(N)Cc2ccc(O)cc2)C1)C(N)=O (stereo partly drawn) | – | – | inactive |
| CCn1ncc2c(=O)n3ncn(-c4ccc(Br)cc4)c3nc21 | – | – | inactive |
| O=C1CCCCCCCCCCC1CN1CCCCC1 (stereo not drawn) | – | – | inactive |
| O=[N+]([O-])c1ccc2[nH]nc(OCc3ccccn3)c2c1 | 115 | > 200 | – |
| CCOC(=O)c1nc2cc(C(F)(F)F)ccc2nc1Oc1ccc(C#N)cc1 | > 200 | 93.3 | – |
| O=C1OC(=O)C2C3CC(C12)C1C3N1S(=O)(=O)c1ccccc1 (stereo not drawn) | > 132 | > 132 | – |
| NC1=CN(Cc2ccccc2)C2=N/C(=C\c3ccco3)C(=O)N12 | > 200 | 191 | – |
| O=S(=O)(c1ccc(NCSc2nc3ccccc3s2)cc1)c1ccc(NCSc2nc3ccccc3s2)cc1 | > 12 | > 12 | – |
| C[C@H](C(=O)C12CC3CC(CC(C3)C1)C2)[C@H](O)c1ccccc1 | – | – | inactive |
| c1ccc(-c2cc(-c3ccccc3)nc(-c3ccncc3)c2)cc1 | > 200 | > 200 | – |
| CCCCN1[C@@H](C)C=C[C@@H](C)S1=O (stereo partly drawn) | – | – | inactive |
| C(=C\c1cc(CCc2nc3ccccc3[nH]2)[nH]n1)/c1ccccc1 | > 83.2 | > 83.2 | – |
